According to paper PMC5225183, “Fingerprinting of neurotoxic compounds using a mouse embryonic stem cell dual luminescence reporter assay” (Archives of Toxicology, 2016):
Where two headings read alike, the source gives them in different places. Marks after values point to notes of the source that are not given here. Square brackets hold non-standard residues; d marks the D form. Peptide text beside a SMILES is read from it. * marks the point of attachment. Fmoc = O=C(OCC1c2ccccc2-c2ccccc21)*; Cha = N[C@@H](CC1CCCCC1)C(=O)O; AMC = Cc1cc(=O)oc2cc(N*)ccc12

Columns and labels:
[1] = cited from earlier work
[2] = test system: ESCs and ESC-derived neurons; assay: Dual luminescence reporter test system, all readouts in ESCs and ESC-derived neurons
Source text: Fig. 1 Synopsis of experimental protocols. The impact of compounds on neural promoter activity (FLuc, Firefly Luciferase under the control of the Tα1 promoter), general promoter activity (RLuc, Renilla Luciferase under the control of the EF1α promoter), and amount of DNA (PI, propidium iodide fluorescence in cell homogenates) was investigated in undifferentiated mouse embryonic pluripotent stem cells (ESCs) and on ESC-derived neurons. Arrows indicate the time of measurement of the three parameters. a Protocol for testing compounds effects on ESCs. CGR8-2Luc cells were plated on gelatin-coated 96-well plates in maintenance medium (BHK21 medium containing 10 % FCS, L-glutamine, NEAA, P/S, and LIF). Twenty-four hours later, cells were exposed to compounds for forty-eight hours. b Protocol for testing compounds on ESC-derived neurons.
(§1) At day 5, cells were then re-plated (3 × 10^5 cells/cm^2) on polyornithine-coated 96-well plates in N2 medium containing DMEM, N2 supplement, penicillin/streptomycin, and 10 ng/ml basic human fibroblast growth factor (bFGF) (Invitrogen). […] To assess toxicity of compounds on undifferentiated pluripotent stem cells (ESCs), CGR8-2Luc cells were plated at 45,000 cells/cm^2 on 0.1 % gelatin-coated dishes in BHK21 medium, supplemented with 10 % fetal calf serum, L-glutamine, non-essential amino acids, penicillin/streptomycin, and leukemia inhibitory factor (LIF). After 24 h, compounds were added and incubated for 48 h, before luciferase expression and PI fluorescence were analyzed. In all experiments, methylmercury was used as a positive control at a concentration of 5 µM.
Luciferase activities were measured with a Dual-Luciferase™ Reporter system kit. CGR8-2Luc ES cells were lysed in 96-well plates according to the manufacturer’s instructions. Luminescence measurements were performed on a Fluostar Optima reader. Luminescence counts were expressed as percentage of promoter activity normalized by comparison with the control wells treated by DMSO. […] parameters were measured in homogenates of ESCs and in ESC-derived neurons: (1) FLuc, reflecting the activity of early neural promoter Tα1. FLuc increases during neuronal differentiation. Many neurotoxic compounds may affect FLuc expression, either through impact on neuronal differentiation, through changes of neuronal gene expression, or through killing of neurons.
(§2) PI was added to cell homogenates after the luciferase test, at a final concentration of 50 µg/ml and incubated for 2 h. After incubation, fluorescence intensity was measured on a Flexstation 3 microplate reader (Excitation: 544 nm ± 15 nm; Emission: 620 nm ± 15 nm). Results are expressed as percentage of control. Propidium iodide (PI) measures total DNA content as an approximation of the cell number. A decrease in PI fluorescence was interpreted as a decrease in cell number and therefore throughout the text referred to as cytotoxicity.
To describe the shape of different concentration–response curves, arbitrary scores were assigned as follows: 0 for “no change,” 1 for “down-stroke,” 2 for “bimodal profile,” and 3 for “up-stroke” (Fig. S1). A curve was classified as “down-stroke” or “up-stroke” if the change in response values comparative to control was statistically significant (p value <0.05, one-way ANOVA with post hoc Dunnett) with an additional requirement of a 30 % decrease or increase of mean response value relative to controls, respectively. If the absolute change in mean response values was below 30 % the curve was classified as “no change.” A curve was classified as “bimodal” if first up-stroke and subsequently down-stroke was observed.

CGR8-2Luc ESCs = test system: CGR8-2Luc ESCs
Source text: (§3) Fig. 1 Synopsis of experimental protocols. The impact of compounds on neural promoter activity (FLuc, Firefly Luciferase under the control of the Tα1 promoter), general promoter activity (RLuc, Renilla Luciferase under the control of the EF1α promoter), and amount of DNA (PI, propidium iodide fluorescence in cell homogenates) was investigated in undifferentiated mouse embryonic pluripotent stem cells (ESCs) and on ESC-derived neurons. Arrows indicate the time of measurement of the three parameters. a Protocol for testing compounds effects on ESCs. CGR8-2Luc cells were plated on gelatin-coated 96-well plates in maintenance medium (BHK21 medium containing 10 % FCS, L-glutamine, NEAA, P/S, and LIF). Twenty-four hours later, cells were exposed to compounds for forty-eight hours. b Protocol for testing compounds on ESC-derived neurons. CGR8-2Luc cells were co-cultured with MS5 cells to induce neural differentiation in DMEM medium containing 15 % KO-serum, NEAA, β-mercaptoethanol, and P/S. On day 5, cells were detached and seeded on polyornithine-coated plates in DMEM medium containing N2 supplement, bFGF, and P/S; compound exposure was from day 6 to day 8
as §1, with “To test compounds on ESC-derived neurons, neuronal differentiation was carried out as previously described (Suter et al. [2009]; Xu et al. [2014]). Briefly, CGR8-2Luc cells were seeded on irradiated bone marrow-derived stromal MS5 cells and cultivated for 4 days in DMEM medium containing 15 % Knock-out™ Serum Replacement, non-essential amino acids, beta-mercaptoethanol, and penicillin/streptomycin. At” for “At”
as §2, with “After measurement of luciferase activity, DNA quantity was determined by PI assay, as previously described (Xu et al. [2014]). PI was” for “PI was”
(§4) Lowest adverse effect level (LOAEL) was defined as the lowest tested concentrations that lead to a statistically significant decrease for a given read-out (FLuc, RLuc, and PI) compared to baseline. “Baseline” was not in all cases defined by untreated cells, but may also refer to, e.g., a state of increased activity due to low, non-toxic compound concentrations.

ESC-derived neurons = test system: ESC-derived neurons
Source text: as §3
as §1, with “To test compounds on ESC-derived neurons, neuronal differentiation was carried out as previously described (Suter et al. [2009]; Xu et al. [2014]). Briefly, CGR8-2Luc cells were seeded on irradiated bone marrow-derived stromal MS5 cells and cultivated for 4 days in DMEM medium containing 15 % Knock-out™ Serum Replacement, non-essential amino acids, beta-mercaptoethanol, and penicillin/streptomycin. At” for “At”
as §2, with “After measurement of luciferase activity, DNA quantity was determined by PI assay, as previously described (Xu et al. [2014]). PI was” for “PI was”
as §4

EF1α promoter = test system: EF1α promoter
Source text: (§5) Dual luciferase expressing CGR8-2Luc cells were obtained by transduction of mouse ESC CGR8 cells with the 2K7 EFS-Renilla Luciferase (RLuc)/Talpha1-Firefly Luciferase (FLuc) vector as previously described (Suter et al. [2006], [2009]); EFS corresponds to the short promoter of the eukaryotic translation elongation factor 1 alpha (EF1α), and Talpha1 to the Tubulin α1 (Tα1) promoter. Tα1 was selected as a promoter active in neurons, including early stages of neural differentiation. EF1α was originally selected to function as a constitutive promoter; however, it responds to cellular differentiation as well as to various chemicals, as previously shown (Kern et al. [2013]). Cells were cultured on 0.1 % gelatin-coated dishes in CGR8-2luc maintenance medium: BHK21 medium, supplemented with 10 % fetal calf serum, L-glutamine, non-essential amino acids, penicillin/streptomycin, and leukemia inhibitory factor (LIF). CGR8 cells were grown in a feeder-independent manner (embryonic pluripotent stem cells, ESCs) as described in protocol 1 (Fig. 1) before testing compounds of interest.
as §3
as §1, with “To test compounds on ESC-derived neurons, neuronal differentiation was carried out as previously described (Suter et al. [2009]; Xu et al. [2014]). Briefly, CGR8-2Luc cells were seeded on irradiated bone marrow-derived stromal MS5 cells and cultivated for 4 days in DMEM medium containing 15 % Knock-out™ Serum Replacement, non-essential amino acids, beta-mercaptoethanol, and penicillin/streptomycin. At” for “At”
(§6) Luciferase activities were measured with a Dual-Luciferase™ Reporter system kit. CGR8-2Luc ES cells were lysed in 96-well plates according to the manufacturer’s instructions. Luminescence measurements were performed on a Fluostar Optima reader. Luminescence counts were expressed as percentage of promoter activity normalized by comparison with the control wells treated by DMSO.

[3] = test system: Tubulin α1 (Tα1) promoter
Source text: as §5, §3
as §1, with “To test compounds on ESC-derived neurons, neuronal differentiation was carried out as previously described (Suter et al. [2009]; Xu et al. [2014]). Briefly, CGR8-2Luc cells were seeded on irradiated bone marrow-derived stromal MS5 cells and cultivated for 4 days in DMEM medium containing 15 % Knock-out™ Serum Replacement, non-essential amino acids, beta-mercaptoethanol, and penicillin/streptomycin. At” for “At”
as §6

[4] = test system: Tubulin α1 (Tα1) promoter; assay: cells
Source text: as §5, §3
as §1, with “To test compounds on ESC-derived neurons, neuronal differentiation was carried out as previously described (Suter et al. [2009]; Xu et al. [2014]). Briefly, CGR8-2Luc cells were seeded on irradiated bone marrow-derived stromal MS5 cells and cultivated for 4 days in DMEM medium containing 15 % Knock-out™ Serum Replacement, non-essential amino acids, beta-mercaptoethanol, and penicillin/streptomycin. At” for “At”
as §6

[5] = undifferentiated ESCs, 48 h exposure, PI assay (cytotoxicity)
[6] = ESC-derived neurons, 48 h exposure, PI assay (cytotoxicity)
[7] = ESC-derived neurons, 48 h exposure
[8] = undifferentiated ESCs, 48 h exposure
[9] = undifferentiated ESCs, 48 h exposure, lowest tested concentration with statistically significant decrease
[10] = reporter activity changes in the non-cytotoxic concentration range, highest possible number 4

Molecule | Concentration in humans ([1]; ref Zimmer et al. ([2014])) | Number of non-cytotoxic changes ([2]; mouse, 48 h) | LOAEL ESC DNA (CGR8-2Luc ESCs; [5]) | LOAEL Neurons DNA (ESC-derived neurons; [6]) | LOAEL Neurons EF1α (EF1α promoter; [7]) | LOAEL ESC EF1α (EF1α promoter; [8]) | LOAEL ESC Tα1 [3, 9] | LOAEL Neurons Tα1 [4, 7] | LOAEL Neurons Tα1 ([4]; ESC-derived neurons, 48 h exposure, listed as amiodarone) | result in the dual luminescence reporter test system [2] | Number of non-cytotoxic changes [2, 10] | Concentration in humans ([1]; ref Dewland et al. ([2009])) | result in the dual luminescence reporter test system ([2]; ESCs and neurons, FLuc, RLuc, PI) | LOAEL ESC DNA (CGR8-2Luc ESCs; mouse) | LOAEL Neurons DNA (ESC-derived neurons; mouse) | LOAEL ESC EF1α (EF1α promoter; mouse) | LOAEL Neurons EF1α (EF1α promoter; mouse) | LOAEL ESC Tα1 ([3]; mouse) | LOAEL Neurons Tα1 ([4]; mouse)
COCCCOc1cc(C[C@@H](C[C@H](N)[C@@H](O)C[C@H](C(=O)NCC(C)(C)C(N)=O)C(C)C)C(C)C)ccc1OC [Aliskiren] | 0.33^k µM | 0 | >50 µM | >50 µM | >50 µM | >50 µM | >50 µM | >50 µM |  |  |  |  |  |  |  |  |  |  | 
CCCCc1oc2ccccc2c1C(=O)c1cc(I)c(OCCN(CC)CC)c(I)c1 [Amiodarone] |  | 1 |  |  |  |  |  | 50 µM | 5 µM |  |  |  |  |  |  |  |  |  | 
CC(C1CC1)C(O)(Cn1cncn1)c1ccc(Cl)cc1 (centres unmarked) [Cyproconazole] |  | 0 | >50 µM | >50 µM | >50 µM | >50 µM | >50 µM | >50 µM |  | did not give a signal |  |  |  |  |  |  |  |  | 
COc1cccc2c1C(=O)c1c(O)c3c(c(O)c1C2=O)C[C@@](O)(C(=O)CO)C[C@@H]3O[C@H]1C[C@H](N)[C@H](O)[C@H](C)O1 [Doxorubicin] |  | 0 | 0.005 µM | 0.005 µM | 0.005 µM | 0.005 µM | 0.005 µM | 0.005 µM |  | strongly decreased the neuronal and general reporter activities, as well as the cell number |  |  |  |  |  |  |  |  | 
Cc1cc(=O)oc2cc(NC(=O)[C@H](CCCCN)NC(=O)[C@H](CC3CCCCC3)NC(=O)OCC3c4ccccc4-c4ccccc43)ccc12 [Galnon] (Fmoc-[Cha]-Lys-{AMC}) |  |  | 20 µM | >20 µM | 5 µM | 20 µM | 20 µM | 5 µM |  |  | 2 |  |  |  |  |  |  |  | 
CC(C)Cc1ccc(C(C)C(=O)O)cc1 (centres unmarked) [Ibuprofen] |  | 0 | >50 µM | >50 µM | >50 µM | >50 µM | >50 µM | >50 µM |  | negative |  | 150^a µM |  |  |  |  |  |  | 
Cc1ccc(NC(=O)c2ccc(CN3CCN(C)CC3)cc2)cc1Nc1nccc(-c2cccnc2)n1 [Imatinib] |  | 3 | >10 µM | >10 µM | 10 µM | >10 µM | 10 µM | 10 µM |  |  |  |  |  |  |  |  |  |  | 
CCCc1nn(C)c2c(=O)[nH]c(-c3cc(S(=O)(=O)N4CCN(C)CC4)ccc3OCC)nc12 [Sildenafil] |  | 0 | >50 µM | >50 µM | >50 µM | >50 µM | >50 µM | >50 µM |  |  |  |  |  |  |  |  |  |  | 
N[C@@H](CC(=O)N1CCn2c(nnc2C(F)(F)F)C1)Cc1cc(F)c(F)cc1F [Sitagliptin] | 1.9^k µM | 0 | >50 µM | >50 µM | >50 µM | >50 µM | >50 µM | >50 µM |  |  |  |  |  |  |  |  |  |  | 
CC(C)(C)C(=O)C(Oc1ccc(Cl)cc1)n1cncn1 (centres unmarked) [Triadimefon] |  |  |  |  |  |  |  |  |  | relatively weak responses |  |  | potentially neurotoxic | >50 µM | >50 µM | >50 µM | 50 µM | 50 µM | >50 µM
Exenatide |  |  | >0.02 µM | >0.02 µM | >0.02 µM | >0.02 µM | >0.02 µM | >0.02 µM |  |  | 0 |  |  |  |  |  |  |  | 
